For 24 compounds, TGI results are on record in PubChem BioAssay (NCI).

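1) Cells in 96-well plates. 2) Compound, 48 h, 5 concentrations. 3) Linear interpolation between surrounding doses. 4) Unreached endpoint = highest concentration. TGI: concentration producing complete growth inhibition.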

Assay in all cases: NCI-60 cell line screen, 48 h
Assay [1] relates to COLO 205 colon.
The subject of assay [2] is SNB-75 CNS.
The subject of assay [3] is HCT-15 colon.
Assay [4] deals with RPMI-8226 leukemia.
In assay [5] the test system is 786-0 renal.
Assay [6] relates to MDA-N.
The test system of assay [7] is ACHN renal.
Assay [8] relates to OVCAR-3 ovarian.
For assay [9], the system named is CCRF-CEM leukemia.
Assay [10] concerns A549 NSCLC.
Assay [11] has as its system BT-549 breast.

For `CC(C)[C@H](NC(=O)[C@H](N)Cc1ccc(N(CCCl)CCCl)cc1)C(=O)O`, the TGI in assay [1], in [2], in [3], in assay [4], in assay [5] and in assay [6] was greater than 100 µM in each case. The TGI in assay [7], in assay [8], in assay [9], in assay [10] and in assay [11] was greater than 100 µM in each case.
For the compound `O=C1CSC(c2ccccc2[N+](=O)[O-])N1c1ccc(-c2ccc(-n3c(-c4ccccc4)nc4ccccc4c3=O)cc2)cc1` (centres undefined), the TGI is greater than 100 µM in assay [1]; 61.3 µM in [2]; greater than 100 µM in [3]; greater than 100 µM in assay [4]; greater than 100 µM in assay [5]; greater than 100 µM in [6]. Also, the TGI in [7], in assay [8], in assay [9], in assay [10] and in assay [11] was greater than 100 µM throughout.
On to `COc1ccccc1C1ON=C(c2ccc([N+](=O)[O-])cc2)N1C12CC3CC(CC(C3)C1)C2` (centres undefined), for which the TGI in [1], in assay [2], in [3], in [4], in assay [5] and in assay [6] was greater than 100 µM each time. For the same compound, the TGI in assay [7], in [8], in assay [9], in assay [10] and in assay [11] was greater than 100 µM throughout.
With `N#CC(=N)c1ncn(-c2ccc(N)cc2)c1N`, the TGI in assay [1], in assay [2], in assay [3], in assay [4], in [5] and in assay [6] was greater than 100 µM in each case. For the same compound, the TGI in assay [7], in assay [8], in [9], in assay [10] and in [11] was greater than 100 µM in each case.
As to `N#Cc1c(N2CCC(O)C2)c2ccccc2n2c1nc1ccccc12` (centres undefined), the TGI is greater than 100 µM in assay [1]; 62.9 µM in [2]; greater than 100 µM in assay [3]; greater than 100 µM in [4]; 50.6 µM in assay [5]; greater than 100 µM in [6]. For the same compound, the TGI in assay [7] was 42 µM; in assay [8], greater than 100 µM; in [9], greater than 100 µM; in [10], greater than 100 µM; in [11], greater than 100 µM.
On to `C/C=C(\C)C(O)C(C)C(O)C/C=C(C)/C=C(\C)C/C(C)=C/C/C=C(\C)C(O)C(C)c1ccc(CCC)c(=O)o1` (centres undefined), for which the TGI is 16.8 µM in assay [1]; 25.2 µM in assay [2]; 15.3 µM in [3]; greater than 100 µM in assay [4]; 55.7 µM in assay [5]; 22.8 µM in assay [6]. Also, the TGI in assay [7] was 53.2 µM; in [8], 27.8 µM; in assay [9] it was greater than 100 µM; in [10] it was 27.8 µM; in assay [11] it was 25 µM.
Regarding `NC(=O)NCCCC(NC(=O)OCCCCCCn1ccc(=O)[nH]c1=O)C(=O)O` (centres undefined), the TGI in assay [1], in assay [2], in [3], in assay [4], in assay [5] and in assay [6] was greater than 100 µM throughout. The TGI in [7], in [8], in assay [9], in assay [10] and in assay [11] was greater than 100 µM each time.
Consider `CS(=O)(=O)c1ccc(N=C/C=C/Nc2ccc(S(C)(=O)=O)cc2)cc1`, for which the TGI in assay [1], in [2], in assay [3], in assay [4], in assay [5] and in [6] was greater than 100 µM throughout. The TGI in assay [7], in assay [8], in assay [9], in [10] and in [11] was greater than 100 µM throughout.
On to `CC[C@@]1(C)CCC2c3ccc(O)cc3CC[C@H]2C1C` (some centres undefined), for which the TGI in [1] was determined as 35.1 µM; in assay [2], 37.2 µM; in assay [3] it was 31.4 µM; in assay [4], 39.5 µM; in assay [5], 29.8 µM; in assay [6], 25.8 µM. In addition, the TGI in [7] is 32.7 µM; in assay [8] it was 37 µM; in [9], 33.4 µM; in [10], 33.6 µM; in [11], 33.8 µM.
With `CC(C)=CCC/C(C)=C/CC/C(C)=C/CC/C(C)=C/CC/C(C)=C/CC/C(C)=C/CC/C(C)=C/CC/C(C)=C/CC/C(C)=C/CO`, the TGI in [1], in assay [2], in assay [3], in assay [4], in assay [5] and in [6] was greater than 100 µM each time. The TGI in assay [7], in assay [8], in assay [9], in [10] and in assay [11] was greater than 100 µM each time.
With `COC(=O)c1cc(C(=CCC[C@H]2CC[C@@]3(C)C(CCC4C3CC[C@@]3(C)C4CC[C@@H]3C(C)CCCC(C)C)C2)c2cc(Cl)c(O)c(C(=O)OC)c2)cc(Cl)c1O` (some centres undefined), the TGI in assay [1], in [2], in assay [3], in assay [4], in [5] and in assay [6] was greater than 10 µM each time. Moreover, the TGI in [7], in assay [8], in assay [9], in assay [10] and in assay [11] was greater than 10 µM throughout.
For `CN(C)CCn1c(=O)c2ccc(NCCN3CCNCC3)c3c(=O)c4ccccc4n(c1=O)c23`, the TGI in assay [1] turned out to be 13 µM; in [2] it was 10.1 µM; in assay [3] it was 25.3 µM; in [4], 2.93 µM; in [5], 14.1 µM; in assay [6] it was 18.9 µM. The TGI was determined as 15.7 µM in assay [7]; 25.1 µM in assay [8]; 4.4 µM in [9]; 15.9 µM in assay [10]; 22.9 µM in assay [11].
For `CCOC(=O)C1=NN(c2ccc([N+](=O)[O-])cc2)[C@@]2(C)C[C@]3(c4ccccc4)N(c4ccc([N+](=O)[O-])cc4)N=C(C(=O)OCC)N3c3ccccc3N12`, the TGI in assay [1], in [2], in [3], in assay [4], in assay [5] and in assay [6] was greater than 100 µM in each case. The TGI in assay [7], in [8], in assay [9], in assay [10] and in assay [11] was greater than 100 µM throughout.
As for `CC1(C)Cc2nc3c(cc2C(=O)C1C=N/C(C#N)=C(\N)C#N)C(=O)C(C=N/C(C#N)=C(\N)C#N)C(C)(C)C3` (centres undefined), the TGI in assay [1] was 7.04 µM; in assay [2] it was 4.17 µM; in assay [3], 4.48 µM; in [4], greater than 27.7 µM; in assay [5], 3.47 µM; in assay [6], 11.8 µM. Further, the TGI is 5.87 µM in [7]; 11 µM in assay [8]; greater than 100 µM in assay [9]; 8.31 µM in assay [10]; 5.51 µM in assay [11].
For `O=C(O)CCSCc1ccccc1`, the TGI in assay [1], in assay [2], in assay [3], in [4], in [5] and in assay [6] was greater than 100 µM in each case. Moreover, the TGI in [7], in assay [8], in [9], in [10] and in [11] was greater than 100 µM throughout.
Turning to `COc1ccc(/C=C2\CCS(=O)(=O)c3ccccc3C2=O)cc1`, the TGI in assay [1] is 30.5 µM; in assay [2], greater than 100 µM; in assay [3], 43.1 µM; in assay [4], 61 µM; in assay [5] it was 34.6 µM; in [6], 77.3 µM. For the same compound, the TGI is 47.2 µM in assay [7]; 93.8 µM in assay [8]; 68.5 µM in assay [9]; greater than 100 µM in assay [10]; 79.8 µM in [11].
As to `Cc1cccc2c1c(=O)c1c(O)c3c(cc1n2C)OC(C)(C)C=C3`, the TGI in assay [1], in [2], in assay [3], in assay [4], in assay [5] and in assay [6] was greater than 10 µM each time. The TGI in assay [7], in [8], in assay [9], in [10] and in [11] was greater than 10 µM throughout.
For the compound `CCOC(=O)C1(C(=O)OCC)OC(C)=NC1(C(=O)OC)C(=O)OC`, the TGI was greater than 100 µM in assay [1]; 98.1 µM in [2]; greater than 100 µM in [3]; greater than 24.6 µM in [4]; greater than 100 µM in [5]; greater than 100 µM in assay [6]. Further, the TGI was greater than 100 µM in assay [7]; greater than 100 µM in assay [8]; greater than 100 µM in [9]; greater than 100 µM in assay [10]; greater than 31.6 µM in assay [11].
As for `CCOC(=O)C(Cc1ccc(OC(=O)c2ccc(OC)cc2)cc1)NC(=O)C(F)(F)F` (centres undefined), the TGI was greater than 100 µM in [1]; 46.5 µM in assay [2]; greater than 100 µM in assay [3]; greater than 100 µM in assay [4]; greater than 100 µM in assay [5]; greater than 100 µM in assay [6]. The TGI in assay [7], in assay [8], in [9], in assay [10] and in assay [11] was greater than 100 µM in each case.
`Cn1c(=O)c2c(nc3n2CCCC(=O)N3CC(O)CCl)n(C)c1=O` (centres undefined): the TGI in assay [1], in assay [2], in assay [3], in assay [4], in assay [5] and in [6] was greater than 100 µM throughout. In addition, the TGI in [7], in assay [8], in assay [9], in [10] and in assay [11] was greater than 100 µM each time.
Consider `CN(/N=C/c1cccc2cccnc12)c1ccc(Cl)cc1[N+](=O)[O-]`, for which the TGI in assay [1], in assay [2], in assay [3], in [4], in assay [5] and in assay [6] was greater than 100 µM in each case. Moreover, the TGI in assay [7], in [8], in assay [9], in [10] and in assay [11] was greater than 100 µM each time.
Consider `COC(O)C(=O)c1ccc2c(c1)CC1(C2)Cc2cc3c(cc2C1=O)CCC3` (centres undefined), for which the TGI in [1] was 47.2 µM; in assay [2] it was 37.5 µM; in [3], 58 µM; in assay [4], 32.7 µM; in assay [5] it was 31.4 µM; in [6], 42.3 µM. Also, the TGI was 30.6 µM in assay [7]; 34.5 µM in assay [8]; 48 µM in assay [9]; 47.4 µM in assay [10]; 31.8 µM in [11].
`CC(=O)Nc1c(C)cc2c(nc3n2CCC3OC(C)=O)c1[N+](=O)[O-]` (centres undefined): the TGI in assay [1], in assay [2], in [3], in assay [4], in assay [5] and in assay [6] was greater than 100 µM throughout. Also, the TGI in assay [7], in [8], in [9], in assay [10] and in assay [11] was greater than 100 µM each time.
Regarding `CCOC(=O)C1=CCOc2cc(N(C)C)ccc21`, the TGI in assay [1], in assay [2], in [3], in [4], in assay [5] and in assay [6] was greater than 100 µM in each case. The TGI is greater than 100 µM in assay [7]; 55.3 µM in [8]; 64 µM in assay [9]; greater than 100 µM in [10]; greater than 100 µM in [11].
